The values below come from patent US20240132485A1, “HETEROCYCLIC CULLIN RING UBIQUITIN LIGASE COMPOUNDS AND USES THEREOF” (CEMM - FORSCHUNGSZENTRUM FÜR MOLEKULARE MEDIZIN GMBH, priority 2020, published 2024).

Assay [1] concerns the target T1, DDB1-CDK12/Cyclin K ternary complex (Homo sapiens, UniProt Q16531+Q9NYV4).
T1 construct: expressed in transfected cells; host or cells: HEK293T wildtype cells, transient PEI transfection
Briefly: NanoBRET fold-change assay (HaloTag_CDK12 / NanoLuc_DDB1 in HEK293T). Type of assay: cell-based. As to conditions: 10 μM compound, 10 minutes. The procedure: This assay measures the interaction/recruitment of CDK12/Cyclin K to DDB1, mechanistically validating the molecular glue pharmacology.
HEK293T wildtype cells are seeded 800 k cells/well (DMEM+10% FBS+1% PS) in a 6-well plate and allowed to attach for ˜7 hours followed by a transient transfection of 1.5 μg HaloTag_CDK12 Plasmid [Table 1] and 0.15 μg NanoLuc_DDB1 plasmid [Table 1] per well using PEI. Cells are incubated at 37° C., 5% CO2, harvested after 24 hours and resuspended in assay media (Opti-MEM Reduced serum media, no phenol red, 4% FBS, 1% PS). Cells are adjusted to 2.3×10^5 cells/ml and treated with HaloTag 618 Ligand at 100 nM or DMSO. 8000 cells are seeded per well in triplicates per compound in a white-walled 384-well plate, one negative control treated with DMSO instead of HaloTag 618 Ligand is seeded in triplicates and the 384-well plate is incubated at 37° C., 5% CO2 overnight. Compound stock solutions are prepared in Opti-MEM−/− (Opti-MEM I Reduced serum media, no phenol red) at 8× and used to treat the cells at a final concentration of 1× at 10 μM. Cells and compounds are incubated for 10 minutes at room temperature followed by addition of NanoBRET Nano-Glo substrate following manufacturer's protocols. The plate is shaken for 30 sec followed by immediate measurement of donor emission (NanoBRET Blue at 460 nm) and acceptor emission (BRET Deep Red at 647 nm) for 0.5 s.
In general terms: In BRET a luciferase serves as donor, and the signal depends on an acceptor being close.

A further assay concerns KBM7 cells (wild-type). Briefly: KBM7 CTG EC50 assay (UBE2M wild-type). It counts as cell-based, human. Particulars: for EC50: Homo sapiens, KBM-7, 72 h incubation, CellTiter-Glo, read-out: KBM7 CTG EC50 (UBE2M wild-type) Activity Class; for Ratio UBE2M WT to KO: ratio of anti-proliferative activity in KBM7 wild-type versus UBE2M knock-out cells (fold). The source says:
(§1) This is a cell viability assay to measure the desired therapeutic effect, i.e. killing of cancer cells. The UBE2M mutant cell line has impaired activity of the Cullin-RING ligase system due to a hypomorphic mutation in UBE2M, which is required for activation of these E3 ligases. By comparison with WT cells, it is possible to estimate the contribution of Cyclin K degradation (which is reduced in UBE2M mut cells) compared to kinase inhibition of CDK12 (which is unaffected in UBE2M mut cells). Since the UBE2M mutation only reduces CRL function without fully abrogating it, this assay may slightly underestimate the effect of degradation because, at high compound concentrations, degradation may still be observed.
(§2) KBM7 cells (wild-type or harboring α hypomorphic UBE2M mutation (Mayor-Ruiz et al., 2019)) were seeded in a white opaque 384-well plate at a density of 1000 cells per well in duplicate, in full medium (IMDM+10% FBS+1% penicillin-streptomycin). Cells were treated with compounds in a 10-point titration with a dilution factor of 1:4 (range: 0 to 20 μM). After 72 h of incubation, the cell viability was determined using the CellTiter-Glo® 2.0 reactant (Promega), pre-diluted 1:4 in mQ water. The luminescence signal was measured using the multimode plate reader EnVision 2105 (Perkin Elmer).
On the technique in general: In ATP-based viability assays light output follows the ATP content of the culture.

The test system of assay [2] is KBM7 cells harboring a hypomorphic UBE2M mutation. Description: KBM7 CTG EC50 assay (UBE2M knock-out). It counts as cell-based. Particulars: Homo sapiens, KBM-7; 72 h incubation, CellTiter-Glo; read-out: KBM7 CTG EC50 (UBE2M knock-out) Activity Class.
Text: as §1, §2

The next assay deals with CCNK. Description: NanoLuc-CCNK degradation assay (HEK293T_Nluc_CCNK-tagged cells). It counts as cell-based. As to conditions: 4 h incubation, HEK293T_Nluc_CCNK-tagged cells; for DC50: read-out: NanoLuc-CCNK degradation DC50 Activity Class. The procedure: The assay helps to elucidate the mechanistic explanation of the cell killing effect of the compounds of the present invention. Cyclin K is fused to a nanoluciferase, light emission is measured as a proxy of Cyclin K abundance. Potency of Cyclin K degradation and cytotoxicity of KBM7 correlate extremely well, further supporting Cyclin K degradation being the main driver of the cell killing, as opposed to inhibition of CDK12 catalytic activity.
HEK293T_Nluc_CCNK-tagged cells were engineered by integrating a nanoluciferase tag at the N-terminus of the endogenous locus of CCNK using CRISPR-Cas9 technology. Briefly, 5.5 million HEK293T cells were co-transfected by PEI with a 1:1 ratio of cutting vector (sgRNA: […]) and repair template (4 μg total plasmid) as previously described (Brand and Winter, 2019). The repair sequence comprises a cassette of puromycinR-P2A-HA-Nluc-(G4S)3 (P2A: self-cleaving peptide 2A, HA: HA-tag, (G4S)3: flexible linker), surrounded by 20-nucleotide microhomologies matching the genomic locus. After 3 days of incubation, the recombinant population was selected by puromycin treatment (2 μg/ml, 5-day treatment). A monoclonal population was obtained by limiting dilution and cassette integration validated by Sanger sequencing.
HEK293T_Nluc_CCNK-tagged cells were seeded in a white opaque 384-well plate at a density of 8000 cells per well in duplicate, in full medium (Opti-MEM I+4% FBS+1% PS). Cells were treated with compounds in a 10-point titration (range: 0 to 10 μM, 1:4 dilution). After 4 h of incubation, Nano-Glo substrate (Promega), pre-diluted in serum-free medium (Opti-MEM I), was added to the cells (1:500 final dilution). The luminescence signal was directly measured using the multimode plate reader EnVision 2105 (Perkin Elmer).

T1 sequence (Q9NYV4 whole entry): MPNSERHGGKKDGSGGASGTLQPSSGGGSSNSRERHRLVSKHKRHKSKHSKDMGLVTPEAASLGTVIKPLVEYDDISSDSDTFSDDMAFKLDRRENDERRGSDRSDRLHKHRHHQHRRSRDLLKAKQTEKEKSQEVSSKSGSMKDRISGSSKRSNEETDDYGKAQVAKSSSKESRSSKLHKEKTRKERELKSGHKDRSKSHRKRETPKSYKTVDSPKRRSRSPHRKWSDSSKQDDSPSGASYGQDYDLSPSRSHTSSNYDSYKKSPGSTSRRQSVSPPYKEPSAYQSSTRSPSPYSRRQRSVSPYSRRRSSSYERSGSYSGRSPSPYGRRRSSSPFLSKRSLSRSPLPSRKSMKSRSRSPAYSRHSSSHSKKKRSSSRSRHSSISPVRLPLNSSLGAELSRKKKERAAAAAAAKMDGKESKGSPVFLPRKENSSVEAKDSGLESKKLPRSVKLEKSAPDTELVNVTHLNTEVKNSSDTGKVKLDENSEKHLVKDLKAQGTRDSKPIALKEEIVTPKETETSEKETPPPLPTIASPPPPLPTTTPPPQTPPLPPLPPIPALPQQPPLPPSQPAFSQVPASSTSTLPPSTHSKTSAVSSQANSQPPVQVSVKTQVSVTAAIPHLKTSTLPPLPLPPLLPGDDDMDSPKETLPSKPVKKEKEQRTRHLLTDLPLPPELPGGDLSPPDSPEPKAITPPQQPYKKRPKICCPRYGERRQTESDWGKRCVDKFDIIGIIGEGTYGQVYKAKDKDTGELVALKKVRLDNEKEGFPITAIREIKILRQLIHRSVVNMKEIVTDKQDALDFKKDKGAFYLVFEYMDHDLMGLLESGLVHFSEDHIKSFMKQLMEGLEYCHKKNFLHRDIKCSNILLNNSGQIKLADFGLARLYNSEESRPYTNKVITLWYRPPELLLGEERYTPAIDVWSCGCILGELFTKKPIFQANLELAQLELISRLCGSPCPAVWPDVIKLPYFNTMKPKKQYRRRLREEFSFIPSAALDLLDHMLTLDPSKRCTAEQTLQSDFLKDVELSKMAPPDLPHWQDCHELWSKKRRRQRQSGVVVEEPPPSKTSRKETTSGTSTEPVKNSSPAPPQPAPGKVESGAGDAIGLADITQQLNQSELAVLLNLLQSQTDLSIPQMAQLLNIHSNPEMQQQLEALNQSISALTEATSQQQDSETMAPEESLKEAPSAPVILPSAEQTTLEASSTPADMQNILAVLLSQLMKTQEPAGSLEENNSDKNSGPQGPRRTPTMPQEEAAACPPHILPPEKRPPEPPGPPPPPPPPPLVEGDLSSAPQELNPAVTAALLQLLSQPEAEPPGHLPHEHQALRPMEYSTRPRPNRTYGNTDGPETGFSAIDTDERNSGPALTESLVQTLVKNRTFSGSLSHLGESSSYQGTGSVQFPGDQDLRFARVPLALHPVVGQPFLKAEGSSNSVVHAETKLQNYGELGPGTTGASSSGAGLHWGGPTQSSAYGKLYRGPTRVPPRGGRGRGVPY
T1 sequence (Q16531 whole entry): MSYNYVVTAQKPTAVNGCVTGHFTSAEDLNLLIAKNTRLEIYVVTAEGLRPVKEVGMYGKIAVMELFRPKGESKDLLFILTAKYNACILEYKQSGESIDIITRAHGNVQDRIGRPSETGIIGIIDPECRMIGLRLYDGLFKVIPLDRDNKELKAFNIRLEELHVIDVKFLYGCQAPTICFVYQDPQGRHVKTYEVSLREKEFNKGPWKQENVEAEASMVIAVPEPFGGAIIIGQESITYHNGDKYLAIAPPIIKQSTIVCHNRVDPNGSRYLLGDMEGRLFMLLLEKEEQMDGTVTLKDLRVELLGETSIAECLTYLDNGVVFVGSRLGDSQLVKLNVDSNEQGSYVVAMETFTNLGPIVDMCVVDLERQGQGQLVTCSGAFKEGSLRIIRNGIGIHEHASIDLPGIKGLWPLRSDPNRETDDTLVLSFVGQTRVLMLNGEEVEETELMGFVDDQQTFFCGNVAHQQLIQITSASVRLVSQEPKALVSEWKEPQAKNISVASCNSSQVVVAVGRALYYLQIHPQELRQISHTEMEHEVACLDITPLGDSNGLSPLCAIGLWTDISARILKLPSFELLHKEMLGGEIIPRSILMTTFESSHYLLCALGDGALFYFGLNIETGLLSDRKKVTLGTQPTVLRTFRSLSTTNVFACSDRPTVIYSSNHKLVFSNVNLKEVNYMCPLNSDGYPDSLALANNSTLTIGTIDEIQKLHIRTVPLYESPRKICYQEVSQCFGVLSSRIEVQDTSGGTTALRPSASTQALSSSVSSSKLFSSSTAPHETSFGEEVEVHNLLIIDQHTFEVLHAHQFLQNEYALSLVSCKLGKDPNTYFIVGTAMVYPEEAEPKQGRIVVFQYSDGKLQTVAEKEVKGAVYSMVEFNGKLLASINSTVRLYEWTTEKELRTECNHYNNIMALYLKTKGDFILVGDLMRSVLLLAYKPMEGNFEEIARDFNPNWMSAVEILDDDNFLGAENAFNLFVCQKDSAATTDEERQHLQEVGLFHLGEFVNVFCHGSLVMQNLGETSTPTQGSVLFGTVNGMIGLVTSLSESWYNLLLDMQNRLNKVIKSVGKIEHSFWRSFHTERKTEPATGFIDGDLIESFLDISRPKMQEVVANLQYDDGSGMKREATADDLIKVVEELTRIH
T1 sequence (O75909 whole entry partner): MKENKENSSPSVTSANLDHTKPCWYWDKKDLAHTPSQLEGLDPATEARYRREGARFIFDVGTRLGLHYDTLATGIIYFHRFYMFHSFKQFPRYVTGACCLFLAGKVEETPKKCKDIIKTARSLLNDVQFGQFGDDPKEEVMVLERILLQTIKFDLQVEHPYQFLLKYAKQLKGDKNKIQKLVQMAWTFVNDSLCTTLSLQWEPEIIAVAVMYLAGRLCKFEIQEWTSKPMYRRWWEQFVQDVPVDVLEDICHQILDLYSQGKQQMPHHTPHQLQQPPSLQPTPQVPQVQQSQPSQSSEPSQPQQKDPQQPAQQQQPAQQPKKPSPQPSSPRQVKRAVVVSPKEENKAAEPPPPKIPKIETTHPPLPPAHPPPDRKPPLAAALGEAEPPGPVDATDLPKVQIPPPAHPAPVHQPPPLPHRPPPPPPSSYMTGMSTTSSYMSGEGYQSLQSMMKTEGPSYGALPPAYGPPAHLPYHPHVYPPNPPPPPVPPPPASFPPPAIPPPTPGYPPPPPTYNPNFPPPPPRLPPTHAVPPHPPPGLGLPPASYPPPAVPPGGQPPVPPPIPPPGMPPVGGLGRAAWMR

As a reminder, the EC50 is the concentration needed to bring the measured effect to its halfway point. What is called DC50 is the concentration at which degradation of the target reaches its halfway point. As to `O=C(Nc1ncc(C(F)(F)F)s1)C1CC(=O)N(c2ccccc2Cl)C1` (stereo not shown) [Example 3-20, 1-(2-chlorophenyl)-5-oxo-N-(5-(trifluoromethyl)thiazol-2-yl)pyrrolidine-3-carboxamide], the “NanoBRET fold-change Activity Class” value in assay [1] is listed as “C (2-3 fold increase)”. In the assay with KBM7 cells (wild-type), the EC50 was in the range of 0.25 to 0.5 µM and the “Ratio UBE2M WT to KO” value is given as above 10. In assay [2], the EC50 is above 10 µM. The DC50 in the assay on CCNK was above 10 µM.
For `O=C(Nc1ncc(C(F)(F)F)s1)C1CC(=O)N(c2ccc(F)cc2)C1` (stereo not shown) [Example 3-26, 1-(4-fluorophenyl)-5-oxo-N-(5-(trifluoromethyl)thiazol-2-yl)pyrrolidine-3-carboxamide], the “NanoBRET fold-change Activity Class” value in assay [1] was “C (2-3 fold increase)”. For the same molecule, the EC50 in the assay on KBM7 cells (wild-type) is 1 to 10 µM; in assay [2], above 10 µM. Besides, the “Ratio UBE2M WT to KO” value in the assay with KBM7 cells (wild-type) is listed as above 5. Also, in the assay on CCNK, the DC50 was above 10 µM.
On to `O=C(Nc1ncc(C(F)(F)F)s1)C1CC(=O)N(c2cc(F)cc(F)c2)C1` (stereo not shown) [Example 3-21, 1-(3,5-difluorophenyl)-5-oxo-N-(5-(trifluoromethyl)thiazol-2-yl)pyrrolidine-3-carboxamide], for which the “NanoBRET fold-change Activity Class” value in assay [1] is “B (3-4 fold increase)”. In addition, the results for the EC50 (in the assay with KBM7 cells (wild-type); in assay [2]) were at most 0.25 µM and 1 to 10 µM, respectively. For the same molecule, the “Ratio UBE2M WT to KO” value in the assay on KBM7 cells (wild-type) worked out at 44.5. Besides, the “NanoLuc-CCNK degradation DC50 Activity Class” value in the assay on CCNK was “B (0.50 μM≤DC50<0.10 μM)”.
Turning to `O=C(Cc1ccc2cnccc2c1)Nc1ncc(C(F)(F)F)s1` [Example 3-31, 2-(isoquinolin-6-yl)-N-(5-(trifluoromethyl)thiazol-2-yl)acetamide], the “NanoBRET fold-change Activity Class” value in assay [1] is recorded as “C (2-3 fold increase)”. In the assay with KBM7 cells (wild-type), the EC50 lay within 1 to 10 µM and the “Ratio UBE2M WT to KO” value is listed as above 4. Further, the EC50 in assay [2] was above 10 µM. Besides, the DC50 in the assay with CCNK was above 10 µM.
Turning to `O=C(Cc1cc2ccccc2o1)Nc1ncc(C(F)(F)F)s1` [Example 3-41, 2-(benzofuran-2-yl)-N-(5-(trifluoromethyl)thiazol-2-yl)acetamide], the “NanoBRET fold-change Activity Class” value in assay [1] was “C (2-3 fold increase)”. Also, in the assay on KBM7 cells (wild-type), the EC50 was in the range of 1 to 10 µM and the “Ratio UBE2M WT to KO” value was above 2. Further, the EC50 in assay [2] was above 10 µM. Moreover, the “NanoLuc-CCNK degradation DC50 Activity Class” value in the assay on CCNK was “D (10 μM≤DC50<1.0 μM)”.
On to `Cc1ccc2c(CC(=O)Nc3ncc(C(C)C)s3)coc2c1C` [Example 3-2, 2-(6,7-dimethylbenzofuran-3-yl)-N-(5-isopropylthiazol-2-yl)acetamide], for which, in assay [1], the “NanoBRET fold-change Activity Class” value is recorded as “B (3-4 fold increase)”. For the same molecule, the EC50 with KBM7 cells (wild-type) was at most 0.25 µM; in assay [2] it was 0.5 to 1 µM. In addition, in the assay on KBM7 cells (wild-type), the “Ratio UBE2M WT to KO” value was determined as 12.7. Further, in the assay on CCNK, the DC50 is at most 0.1 µM.
On the same counts, the results for `Cc1cccn2cc(CC(=O)Nc3ncc(C(F)(F)F)s3)nc12` [Example 3-7, 2-(8-methylimidazo[1,2-a]pyridin-2-yl)-N-(5-(trifluoromethyl)thiazol-2-yl)acetamide] are “B (3-4 fold increase)”, at most 0.25 µM, 1 to 10 µM, 42.4 and above 10 µM.
Taken in the same sequence, the figures for `Cc1c(CC(=O)Nc2ncc(C(F)(F)F)s2)sc2ccccc12` [Example 3-12, 2-(3-methylbenzo[b]thiophen-2-yl)-N-(5-(trifluoromethyl)thiazol-2-yl)acetamide] were “D (1-2 fold increase)”, above 10 µM, above 10 µM, above 10 and above 10 µM.
On the same counts, the results for `O=C(Cc1cn2cc(Cl)cc(Cl)c2n1)Nc1ncc(C(F)(F)F)s1` [Example 3-8, 2-(6,8-dichloroimidazo[1,2-a]pyridin-2-yl)-N-(5-(trifluoromethyl)thiazol-2-yl)acetamide] are “A (greater than 4-fold increase)”, at most 0.25 µM, at most 0.25 µM, 51.5 and at most 0.1 µM.
As to `Cc1ccc(CN2CC(C(=O)Nc3ncc(C(F)(F)F)s3)CC2=O)cc1` (stereo not shown) [Example 3-29, 1-(4-methylbenzyl)-5-oxo-N-(5-(trifluoromethyl)thiazol-2-yl)pyrrolidine-3-carboxamide], the “NanoBRET fold-change Activity Class” value in assay [1] is given as “B (3-4 fold increase)”. In the assay on KBM7 cells (wild-type), the EC50 lay within 0.5 to 1 µM and the “Ratio UBE2M WT to KO” value is above 16. Further, the EC50 in assay [2] is above 10 µM. For the same molecule, the DC50 in the assay on CCNK is above 10 µM.
On to `O=C(Cc1cccc2ncccc12)Nc1ncc(C(F)(F)F)s1` [Example 3-13, 2-(quinolin-5-yl)-N-(5-(trifluoromethyl)thiazol-2-yl)acetamide], for which the “NanoBRET fold-change Activity Class” value in assay [1] is recorded as “B (3-4 fold increase)”. In the assay with KBM7 cells (wild-type), the EC50 lay within 1 to 10 µM and the “Ratio UBE2M WT to KO” value is on record as above 4. Moreover, the concentration for a half-maximal effect (EC50) in assay [2] is above 10 µM. In the assay with CCNK, the DC50 was above 10 µM.
In the case of `Cc1ccc2c(CC(=O)Nc3ccc(Cl)cn3)coc2c1C` [Example 3-55, N-(5-chloropyridin-2-yl)-2-(6,7-dimethylbenzofuran-3-yl)acetamide], in assay [1], the “NanoBRET fold-change Activity Class” value is “B (3-4 fold increase)”. For the same molecule, in the assay with KBM7 cells (wild-type), the EC50 is 0.25 to 0.5 µM and the “Ratio UBE2M WT to KO” value turned out to be 9.2. In addition, the EC50 in assay [2] lay in the range of 1 to 10 µM. Further, the “NanoLuc-CCNK degradation DC50 Activity Class” value in the assay on CCNK is reported as “C (1.0 μM≤DC50<0.50 μM)”.
Take `CC(C(=O)Nc1ncc(C(F)(F)F)s1)c1cc2ccccc2s1` (stereo not shown) [Example 3-11, 2-(benzo[b]thiophen-2-yl)-N-(5-(trifluoromethyl)thiazol-2-yl)propanamide]: the “NanoBRET fold-change Activity Class” value in assay [1] was “A (greater than 4-fold increase)”. The EC50 (with KBM7 cells (wild-type); in assay [2]) was at most 0.25 µM each time. In addition, the “Ratio UBE2M WT to KO” value in the assay on KBM7 cells (wild-type) is recorded as 9.4. Besides, in the assay on CCNK, the DC50 is at most 0.1 µM.
Turning to `O=C(Cc1ccc2ccncc2c1)Nc1ncc(C(F)(F)F)s1` [Example 3-32, 2-(isoquinolin-7-yl)-N-(5-(trifluoromethyl)thiazol-2-yl)acetamide], the “NanoBRET fold-change Activity Class” value in assay [1] is reported as “B (3-4 fold increase)”. In addition, in the assay with KBM7 cells (wild-type), the EC50 was at most 0.25 µM and the “Ratio UBE2M WT to KO” value was 115.9. Besides, in assay [2], the EC50 is 1 to 10 µM. Also, in the assay with CCNK, the DC50 was at most 0.1 µM.
